Legend:
[1] = system: yeast GSH pathway deletion mutants gsh1Δ and gsh2Δ; type: cell-based, S. cerevisiae; conditions: FIG. 2, 2.5 mM H2O2, 65 μM FeCl3
Description: Yeast strains (gsh1Δ (YJL101c) and gsh2Δ (YOL049w); EUROSCARF) were streaked from glycerol stocks onto YEPD agar plates (1% w/v Bacto yeast extract; 2% w/v Bacto peptone; 2% w/v D-glucose; 2% w/v agar) and incubated at +30° C. for 48 h. Yeast pre-cultures were inoculated from the plates and grown in liquid SG minimal medium (0.67% w/v yeast nitrogen base without amino acids; 2% w/v glucose with appropriate supplements: uracil, 0.02 mg/ml; amino acids, 0.03 mg/ml) at +30° C. in orbital shaker with 180 rpm to stationary phase (1.0-1.2 OD600). Growth was measured spectrophotometrically at 600 nm (OD600) and the cell densities were adjusted to 1.0 OD600 before inoculation of the final density of 0.25 OD600 into each assay reaction.
To validate the alleviation of oxidative stress in living cells and to identify the cellular target proteins for hydroxyl radical scavenging in eukaryotic cells, a yeast deletion mutant bioassay was developed on the basis of HOSC assay (Moore et al. 2006). Hydroxyl radicals were generated under physiological pH (7.4) in Fenton-like Fe^3+/H2O2 reaction. The original assay settings were adjusted for yeast cells in phosphate buffered SG medium, and the pH and O2 levels were monitored by SENBIT® system (Vasala et al. 2006). The concentration of hydrogen peroxide was optimized to a sub-lethal level (2.5 mM) and the reaction was supplemented with appropriate amount of FeCl3 (0.0646 mM) to produce a constant flux of .OH radicals.
The total reaction volume was down-scaled to 1 ml, which made the assay suitable for the natural products low in quantity. […]
All treatments were pipetted in triplicate, and the experiment was repeated three times. Cell growth was monitored at +30° C. for 72 hours and Petri plates were scanned digitally to high-quality computer images after 48 and 72 hours. Hydroxyl radical-induced stress and the alleviation of stress by antioxidant compounds in various deletion mutant strains of S. cerevisiae were evaluated visually.

[2] = HOSC assay (fluorometric .OH scavenging capacity assay); type: biochemical; conditions: for hydroxyl radical scavenging activity (in words) / .OH scavengers, times better than ascorbic acid / .OH scavengers, times better than glutathione: FIG. 1; for hydroxyl radical scavenging activity (in words): compared with L-ascorbic acid, L-glutathione and 3-hydroxybutyric acid; for .OH scavengers, times better than ascorbic acid / .OH scavengers, times better than glutathione: HOSC assay under Fenton's reaction, against Trolox; for .OH scavengers, times better than ascorbic acid: comparator ascorbic acid; for .OH scavengers, times better than glutathione: comparator glutathione; for scavenging capacity, times better compared to 3-HB monomer, 3-hydroxybutyric acid (3-HBA): HOSC assay, comparator commercial 3-HBA
Description: HOSC Assay (Fluorometric .OH Scavenging Capacity Assay)
Assay reactions were prepared according to Moore et al. (2006) and analyzed in black 96-well polystyrene plates (FluoroNunc, Thermo Scientific) with a Victor3 multilabel plate reader (PerkinElmer, Turku, Finland). Each reaction mixture contained 170 μl of 9.28×10^−8 M fluorescein (FL) prepared in 75 mM sodium phosphate buffer (pH 7.4), 30 μl of blank or sample or standard, 40 μl of 0.1990 M H2O2, and 60 μl of 3.43 mM FeCl3, pipetted to the 96-well plate in same order. Trolox standards (20, 40, 60, 80, and 100 μM), control solutions of glutathione, vitamin C, 3-HB monomer (3-hydroxybutyric acid, 3-HBA) (Sigma-Aldrich, St. Louis, Mo.), and the 3-HB oligomer samples were freshly prepared in 50% acetone for each assay. Each reaction was pipetted onto the 96-well plate in triplicate. Fluorescence was measured at the excitation wavelength of 485 nm and the emission wavelength of 535 nm. Read time for each well was 0.1 s, and each plate was read once per minute for 3 h. Based on the area under the curve (AUC) of the Trolox concentrations and the net area under the fluorescein decay curve (Ou et al. 2001), the relative HOSC values were calculated by using the regression equation for the pure compounds. Values were expressed as Trolox equivalents (TE), where one micromole of TE corresponds to one micromole of sample. The experiment was repeated three times.
Calculation of Area Under Curve (AUC) Values: AUC=0.5+f1/f0+f2/f0+f3/f0+ . . . +fi−1/f0+0.5(fi/f0) f0=the initial fluorescence reading at 0 min fi=the final fluorescence reading Calculation of Relative HOSC Values for Pure Compounds: [(AUCsample−AUCblank)/(AUCTrolox−AUCblank)]×(Molarity of Trolox/Molarity of sample)] Iron-Catalyzed Hydroxyl Radical Formation by Haber-Weiss Driven Fenton Reaction (Liochev 1999, Kehrer 2000): Fe^3++O.^2−→Fe^2++O2 (1) Fe^2++H2O2→Fe^3++OH^−+OH.(Fenton reaction) (2)
The Net Reaction: O.^2−+H2O2→O2+OH^−+OH. (3)
Fluorometric .OH scavenging capacity (HOSC) assays for 3-HB mono-, di- and trimers (molecules of general formula 1, wherein n is 1 and 2, respectively), along with glutathione and ascorbic acid was performed. […] Oligomers of 3-HB having a chain length longer than four units had low antioxidant activity.

Shoot tips of Scots pine = test: Viability assay on pine shoot tips; type: cell-based, Pinus sylvestris L.; conditions: FIG. 3; medium including molecules (1) and (2); after five weeks; control shoot tip dead
Description: Viability Assay on Pine Shoot Tips Shoot tips (n=9-13) of Scots pine (Pinus sylvestris L.) were collected from young (>10 years) trees and surface-sterilized in 70% ethanol for 1 min and in 6% Ca(ClO)2 for 20 min, and rinsed thoroughly three times with sterile water. After rinsing in sterile water, the shoot tips (buds) were aseptically peeled in a laminar flow hood and placed on the media. The pine shoot tips were grown in 8/16 h photoperiod at +25±1° C. in the presence and absence of molecules of general formula I, wherein n is from 2 to 10. The viability of the pine tissue was assessed for up to 6 weeks visually (FIG. 3) and by 1% (w/v) acetocarmine staining. The viability on each fraction was recorded as percentage of live buds. The experiment was twice with each oligomer (mono- to decamer) on each Petri plate containing 18-31 pine shoot tips.

| SMILES | reversal of hypersensitivity of yeast mutants to hydroxyl radical stress (in words) [1] | hydroxyl radical scavenging activity (in words) [2] | .OH scavengers, times better than ascorbic acid [2] | .OH scavengers, times better than glutathione [2] | scavenging capacity, times better compared to 3-HB monomer, 3-hydroxybutyric acid (3-HBA) [2] | state of Scots pine shoot tip (in words) (Shoot tips of Scots pine) | antioxidant capacity against hydroxyl radicals (in words) ([2]; compared with 3-hydroxybutyric acid or ascorbic acid) |
| --- | --- | --- | --- | --- | --- | --- | --- |
| COC(=O)CC(C)OC(=O)CC(C)OC(=O)CC(C)O (centres unmarked) [Compound 2] | reversal of hypersensitivity | significantly better | 10 times | 3 times | 10 times | alive |  |
| COC(=O)CC(C)OC(=O)CC(C)O (centres unmarked) [Compound 1, 3-hydroxybutyrate methyl ester dimer] | reversal of hypersensitivity | significantly better | 10 times | 3 times | 10 times | alive | more than tenfold higher |
| N[C@@H](CCC(=O)N[C@@H](CS)C(=O)NCC(=O)O)C(=O)O [glutathione, reference compound] | reversal of hypersensitivity |  |  |  |  |  |  |

Source: patent US10137102B2, “Oligomeric forms of 3-hydroxybutyrate” (Oulun Yliopisto, priority 2014, dated 2018)
